Experimental data: ChEMBL document CHEMBL5523674, “Design, synthesis, and biological evaluation of 2-(naphthalen-1-yloxy)-N-phenylacetamide derivatives as TRPM4 inhibitors for the treatment of prostate cancer” (Bioorg Med Chem, 2024)
Activity calls are given as the source filed them. The calls are words filed in the database; no cut-off is given here.

Experiments:
LNCaP [1] = assay: Antiproliferative activities against human LNCaP cells assessed as cell viability measured after 72 hrs by CCK8 assay; format: functional, cell-based
LNCaP C4-2B [2] = assay: Antiproliferative activities against human LNCaP C4-2B cells assessed as cell viability measured after 72 hrs by CCK8 assay; format: functional, cell-based
LNCaP C4-2B [3] = assay: Inhibition of colony formation in human LNCaP C4-2B cells measured after 14 days incubation by Crystal-violet staining based assay; format: functional, cell-based; conditions: dose 10-40 µM, time 14.0 day
LNCaP C4-2B [4] = assay: Induction of cell cycle arrest in human LNCaP C4-2B cells assessed as accumulation cells at S phase at 20 uM measured after 48 hrs incubation by flow cytometry (reference value: 18.33%); format: functional
LNCaP C4-2B [5] = assay: Induction of apoptosis in human LNCaP C4-2B cells assessed as apoptotic cells at 40 uM measured after 48 hrs of incubation by Annexin V-FITC staining based flow cytometry relative to control; format: functional
LNCaP C4-2B [6] = assay: Induction of cell cycle arrest in human LNCaP C4-2B cells assessed as accumulation cells at G0/G1 phase at 40 uM measured after 48 hrs incubation by flow cytometry (reference value: 70.82%); format: functional
LNCaP C4-2B [7] = assay: Induction of cell cycle arrest in human LNCaP C4-2B cells assessed as accumulation cells at S phase at 10 uM measured after 48 hrs incubation by flow cytometry (reference value: 18.33%); format: functional
LNCaP C4-2B [8] = assay: Inhibition of AR protein expression in human LNCaP C4-2B cells measured after 48 hrs by Western blot analysis; format: functional, cell-based; conditions: dose 12.5-50 µM
LNCaP C4-2B [9] = assay: Induction of apoptosis in human LNCaP C4-2B cells assessed as apoptotic cells at 5 uM measured after 48 hrs of incubation by Annexin V-FITC staining based flow cytometry relative to control; format: functional
LNCaP C4-2B [10] = assay: Induction of cell cycle arrest in human LNCaP C4-2B cells assessed as accumulation cells at G0/G1 phase at 10 uM measured after 48 hrs incubation by flow cytometry (reference value: 70.82%); format: functional
LNCaP C4-2B [11] = assay: Induction of cell cycle arrest in human LNCaP C4-2B cells assessed as accumulation cells at G2/M phase at 10 uM measured after 48 hrs incubation by flow cytometry (reference value: 10.85%); format: functional
LNCaP [12] = assay: Inhibition of AR protein expression in human LNCaP cells measured after 48 hrs by Western blot analysis; format: functional, cell-based; conditions: dose 12.5-50 µM
LNCaP C4-2B [13] = assay: Induction of apoptosis in human LNCaP C4-2B cells assessed as apoptotic cells at 10 uM measured after 48 hrs of incubation by Annexin V-FITC staining based flow cytometry relative to control; format: functional
LNCaP C4-2B [14] = assay: Induction of apoptosis in human LNCaP C4-2B cells assessed as apoptotic cells at 20 uM measured after 48 hrs of incubation by Annexin V-FITC staining based flow cytometry relative to control; format: functional
LNCaP C4-2B [15] = assay: Induction of cell cycle arrest in human LNCaP C4-2B cells assessed as accumulation cells at G0/G1 phase at 5 uM measured after 48 hrs incubation by flow cytometry (reference value: 70.82%); format: functional
LNCaP C4-2B [16] = assay: Induction of cell cycle arrest in human LNCaP C4-2B cells assessed as accumulation cells at S phase at 40 uM measured after 48 hrs incubation by flow cytometry (reference value: 18.33%); format: functional
LNCaP C4-2B [17] = assay: Induction of cell cycle arrest in human LNCaP C4-2B cells assessed as accumulation cells at G2/M phase at 20 uM measured after 48 hrs incubation by flow cytometry (reference value: 10.85%); format: functional
LNCaP C4-2B [18] = assay: Induction of cell cycle arrest in human LNCaP C4-2B cells assessed as accumulation cells at G2/M phase at 5 uM measured after 48 hrs incubation by flow cytometry (reference value: 10.85%); format: functional
LNCaP C4-2B [19] = assay: Induction of cell cycle arrest in human LNCaP C4-2B cells assessed as accumulation cells at G2/M phase at 40 uM measured after 48 hrs incubation by flow cytometry (reference value: 10.85%); format: functional
LNCaP C4-2B [20] = assay: Induction of cell cycle arrest in human LNCaP C4-2B cells assessed as accumulation cells at S phase at 5 uM measured after 48 hrs incubation by flow cytometry (reference value: 18.33%); format: functional
LNCaP C4-2B [21] = assay: Induction of cell cycle arrest in human LNCaP C4-2B cells assessed as accumulation cells at G0/G1 phase at 20 uM measured after 48 hrs incubation by flow cytometry (reference value: 70.82%); format: functional

Work on `COC(=O)c1cc(F)c(Cl)cc1NC(=O)COc1cccc2ccccc12` yielded an IC50 (LNCaP [1]) of 42.1 µM.
In the case of `COC(=O)c1ccc(Cl)cc1NC(=O)COc1ccc(Br)c2ccccc12`, the IC50 (LNCaP C4-2B [2]) is reported as greater than 50 µM, the inhibition (LNCaP C4-2B [3]) is reported as “Dose-Dependent Effect” and the IC50 (LNCaP [1]) is reported as 13.3 µM.
In the case of `COC(=O)c1ccc(Cl)cc1NC(=O)COc1ccc(OC)c2ccccc12`, the Activity (LNCaP [1]) is reported as “inactive”.
Work on `COC(=O)c1ccc(Cl)cc1NC(=O)COc1cccc2ccccc12` yielded an IC50 (LNCaP C4-2B [2]) of 33.5 µM and an IC50 (LNCaP [1]) of 17.1 µM.
`COC(=O)c1ccc(C(F)(F)F)cc1NC(=O)COc1cccc2ccccc12` was tested, and the Activity (LNCaP [1]) was “inactive”.
`COC(=O)c1ccc(C)cc1NC(=O)COc1cccc2ccccc12` was tested, and the Activity (LNCaP [1]) was “inactive”.
With `COC(=O)c1ccc(Br)cc1NC(=O)COc1cccc2ccccc12` the IC50 (LNCaP [1]) was 48.5 µM.
In the case of `COC(=O)c1ccc(Cl)cc1NC(=O)COc1ccc(F)c2ccccc12`, the Activity (LNCaP [1]) is reported as “inactive”.
`CNC(=O)c1ccc(Cl)cc1NC(=O)COc1cccc2ccccc12` gave an IC50 (LNCaP [1]) of 33.9 µM.
`O=C(COc1cccc2ccccc12)Nc1cc(Cl)ccc1C(=O)O` was tested, and the Activity (LNCaP C4-2B [2]) was “inactive” and the IC50 (LNCaP [1]) was greater than 50 µM.
Molecule `COC(=O)c1ccc(Cl)cc1NC(=O)COc1ccnc2ccccc12` has an IC50 (LNCaP [1]) of 32.5 µM.
Molecule `COC(=O)c1ccc(I)cc1NC(=O)COc1cccc2ccccc12` has an Activity (LNCaP C4-2B [4]) of 12.61%, an Activity (LNCaP C4-2B [5]) of 96.6% and an Activity (LNCaP C4-2B [6]) of 79.62%. For the same molecule, the Activity (LNCaP C4-2B [7]) was 17.53%, the IC50 (LNCaP C4-2B [2]) was 8.76 µM and the inhibition (LNCaP C4-2B [8]) was “Dose-Dependent Effect”. It also gave an IC50 (LNCaP [1]) of 12.3 µM, an Activity (LNCaP C4-2B [9]) of 34.5% and an Activity (LNCaP C4-2B [10]) of 71.03%. For the same molecule, the Activity (LNCaP C4-2B [11]) was 11.44%, the inhibition (LNCaP [12]) was “Dose-Dependent Effect” and the Activity (LNCaP C4-2B [13]) was 79%. For the same molecule, the Activity (LNCaP C4-2B [14]) was 92.9%, the Activity (LNCaP C4-2B [15]) was 70.84% and the Activity (LNCaP C4-2B [16]) was 11.54%. It also gave an Activity (LNCaP C4-2B [17]) of 10.12%, an Activity (LNCaP C4-2B [18]) of 11.05% and an Activity (LNCaP C4-2B [19]) of 8.84%. It also gave an Activity (LNCaP C4-2B [20]) of 18.11% and an Activity (LNCaP C4-2B [21]) of 77.27%.
With `COC(=O)c1ccc(Cl)cc1NC(=O)COc1cccc2cnccc12` the IC50 (LNCaP [1]) was 25.4 µM.
For `COC(=O)c1ccc(OC)cc1NC(=O)COc1cccc2ccccc12`, the IC50 (LNCaP [1]) was 19.6 µM.
`COC(=O)c1ccc(Cl)cc1NC(=O)C(C)Oc1cccc2ccccc12` (stereo not given) gave an IC50 (LNCaP [1]) of 19 µM.
`COC(=O)c1ccc(F)cc1NC(=O)COc1cccc2ccccc12` was tested, and the IC50 (LNCaP [1]) was 32 µM.
Molecule `COC(=O)c1ccc(Cl)cc1NC(=O)COc1ccc(Cl)c2ccccc12` has an IC50 (LNCaP [1]) of 19.9 µM.
